This is an account of results in patent publication US12098145B2 (Libra Therapeutics, Inc., priority 2022, dated 2024).

Like-named read-outs stand apart in the source and are kept apart here.

The subject of one experiment is TFEB. The experiment is described as follows: TFEB translocation assay (TFEB reporter in U2OS cells, imaging). The experiment is classed as cell-based. To be noted: Homo sapiens; U2OS cell line with TFEB reporter, 2 hours incubation, nucleus to cytoplasm ratio, normalized to Torin-1; read-out: TFEB Translocation pEC50 (converted). Here is the method: Example B: TFEB Translocation Assay
Reporter TFEB: the reporter is fused to a sequence of monomeric red fluorescent protein.
The reporter TFEB have been stably expressed in U2OS cell line and used as read-out.
Experiments were performed in 384 MTP well format. Cells were seeded in 384-w at a density of 4000 cells/well in 20 μl/well complete growth medium without antibiotics. Twenty-four hours later, cells were treated with compounds and incubated for further 2 hours. Then the cells were imaged and assayed for the response to various compounds using the reporter for TFEB expressed in the cells as readout.
The experiments were performed in a 384-well format according to the following procedure: • 24 h after seeding, cell culture medium was carefully removed and replaced with 20 μl of Opti-MEM (30′ incubation at 37° C. before compound addition) • Then, cells were incubated with compounds diluted in Opti-MEM+0.015% Tween 80 at the desired concentration, with the reference molecule (agonist) Torin-1 at a top concentration of 1 μM (max signal), and with the other reference molecule (agonist) MLSA-5 at top concentration of 20 μM for 2 hours at 37° C. and 5% CO2. The final percentage of DMSO was 0.5% in all the conditions. • Staining of the nuclei was obtained by incubating the cells with 24 μM/well of Hoechst 3342 in standard Tyrode's buffer for 15 min at RT • Then the cells were fixed with PFA 4% for 30 min at RT • After three washes with standard Tyrode's buffer, samples were acquired by recording two fluorescence emission channels (DS-red and blue) at 20× magnification and with at least 3 fields of view per well in an Operetta CLS microscope (PerkinElmer). • Image analysis was performed by using Harmony software (PerkinElmer). The image analysis involved the following steps: flat-field illumination correction, nuclei segmentation, cytoplasm segmentation and calculation of intensity fluorescence in the cytosol and nuclei compartments. Measurements of signal intensity ratio (nucleus to cytoplasm) was used to obtain information on the effects of compounds on the TFEB translocation. • Data from image analysis measurements were finally loaded and analyzed for normalization and fitting procedures in Genedata Screener© software. Data Analysis
Feature: Mean translocation ratio (mean/well)
Data normalization: Stimulator—Neutral control
The GeneData Screener method we have used, normalizes the median of the Stimulator control wells (Torin-1) to 100% and the median of the Neutral control wells (DMSO) to 0% Activity[%]=100*(x−<Min>)/(<“Max”>−<Min>)

Another experiment concerns the target T1, TRPML1 (Homo sapiens, UniProt Q9GZU1).
T1 construct: expressed in transfected cells; host or cells: HEK T-REx cells stably expressing GCaMP6f and TRPML1
The experiment is described as follows: Cellular TRPML1 assay (FLIPR, GCaMP6f calcium read-out). The experiment is classed as cell-based. The gist of the method:
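HEK T-REx cells stably expressing TRPML1 and GCaMP6f, seeded 24 h before in Optimem + 0.5% FBS. After ~10 min pre-incubation at room temperature, compounds in Ca2+-free Tyrode's buffer were injected on FLIPR Tetra (final DMSO 0.5%). Calcium fluorescence kinetics followed for 300 s.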

The mark [1] stands for this setting: HEKT-REx/GCaMP6f/TRPML1 cells, FLIPR TETRA, kinetic response over 300 seconds, read-out: TRPML1 FLIPR pEC50 (converted).

T1 sequence (Q9GZU1 whole entry): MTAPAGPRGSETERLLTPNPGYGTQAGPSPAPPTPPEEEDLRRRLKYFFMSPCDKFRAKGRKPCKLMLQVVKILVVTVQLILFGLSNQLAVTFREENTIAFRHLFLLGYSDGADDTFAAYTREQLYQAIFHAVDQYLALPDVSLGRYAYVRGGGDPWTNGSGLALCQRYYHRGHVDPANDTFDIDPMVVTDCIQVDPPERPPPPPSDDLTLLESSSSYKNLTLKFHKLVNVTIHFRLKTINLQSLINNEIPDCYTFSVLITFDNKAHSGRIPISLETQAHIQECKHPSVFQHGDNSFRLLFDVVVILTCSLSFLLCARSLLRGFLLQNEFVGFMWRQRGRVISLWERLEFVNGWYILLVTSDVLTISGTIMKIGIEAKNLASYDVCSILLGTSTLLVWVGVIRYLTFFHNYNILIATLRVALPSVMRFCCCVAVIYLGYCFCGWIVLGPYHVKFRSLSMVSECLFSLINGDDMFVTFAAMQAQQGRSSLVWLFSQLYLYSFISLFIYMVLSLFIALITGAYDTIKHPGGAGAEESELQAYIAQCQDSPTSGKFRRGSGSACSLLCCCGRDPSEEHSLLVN

For `O=C(Nc1cc(F)c(OC2CC3C[C@@H]3C2)c(F)c1)c1nc(N2CC3(CCOCC3)C2)oc1CC(F)(F)F` (stereo partly drawn) [Example 188, N-(4-(cis-bicyclo[3.1.0]hexan-3-yloxy)-3,5-difluorophenyl)-2-(7-oxa-2-azaspiro[3.5]nonan-2-yl)-5-(2,2,2-trifluoroethyl)oxazole-4-carboxamide], the EC50 in the experiment on TFEB was 10 to 1000 nM.

As for `O=C(Nc1cc(F)c(OC2CC3C[C@H]3C2)c(F)c1)c1nc(N2CC3(CCOC3)C2)oc1CC(F)(F)F` (stereo partly drawn) [Example 189, N-(4-(cis-bicyclo[3.1.0]hexan-3-yloxy)-3,5-difluorophenyl)-2-(6-oxa-2-azaspiro[3.4]octan-2-yl)-5-(2,2,2-trifluoroethyl)oxazole-4-carboxamide], the EC50 in the experiment with TFEB is 10 to 1000 nM.

In the case of `CCc1oc(N2CC(CC)(CO)C2)nc1C(=O)Nc1cc(F)c(OC2CC3C[C@H]3C2)c(Cl)c1` (stereo partly drawn) [Example 220, N-(4-(cis-bicyclo[3.1.0]hexan-3-yloxy)-3-chloro-5-fluorophenyl)-5-ethyl-2-(3-ethyl-3-(hydroxymethyl)azetidin-1-yl)oxazole-4-carboxamide], in the experiment with TFEB, the EC50 was 10 to 1000 nM.

For the molecule `COC1(C)CN(c2nc(C(=O)Nc3cc(O)c(O[C@@H]4C[C@@H]5C[C@@H]5C4)c(F)c3)c(CC(F)(F)F)o2)C1` [Example 267, N-(4-(cis-bicyclo[3.1.0]hexan-3-yloxy)-3-fluoro-5-hydroxyphenyl)-2-(3-methoxy-3-methylazetidin-1-yl)-5-(2,2,2-trifluoroethyl)oxazole-4-carboxamide], the EC50 at TRPML1 (setting [1]) was 1000 to 10000 nM.

Consider `CCC1(OC)CN(c2nc(C(=O)Nc3cc(O)c(O[C@@H]4C[C@@H]5C[C@@H]5C4)c(F)c3)c(CC(F)(F)F)o2)C1` [Example 268, N-(4-(cis-bicyclo[3.1.0]hexan-3-yloxy)-3-fluoro-5-hydroxyphenyl)-2-(3-ethyl-3-methoxyazetidin-1-yl)-5-(2,2,2-trifluoroethyl)oxazole-4-carboxamide], for which the EC50 on TRPML1 (setting [1]) is 1000 to 10000 nM.

On to `CCC1(CC)CN(c2nc(C(=O)Nc3ccc(O[C@@H]4C[C@@H]5C[C@@H]5C4)c(O)c3)c(CC(F)(F)F)o2)C1` [Example 270, N-(4-(cis-bicyclo[3.1.0]hexan-3-yloxy)-3-hydroxyphenyl)-2-(3,3-diethylazetidin-1-yl)-5-(2,2,2-trifluoroethyl)oxazole-4-carboxamide], for which the EC50 on TRPML1 (setting [1]) was 1000 to 10000 nM.

In the case of `CCc1oc(N2CC(C)(OC)C2)nc1C(=O)Nc1cc(O)c(OC2CC3C[C@@H]3C2)c(Cl)c1` (stereo partly drawn) [Example 271, N-(4-(cis-bicyclo[3.1.0]hexan-3-yloxy)-3-chloro-5-hydroxyphenyl)-5-ethyl-2-(3-methoxy-3-methylazetidin-1-yl)oxazole-4-carboxamide], on TRPML1 (setting [1]), the EC50 is 1000 to 10000 nM.

As to `CCC1(CC)CN(c2nc(C(=O)Nc3cc(F)c(O[C@@H]4C[C@@H]5C[C@@H]5C4)c(F)c3)c(C)o2)C1` [Example 273, N-(4-(cis-bicyclo[3.1.0]hexan-3-yloxy)-3,5-difluorophenyl)-2-(3,3-diethylazetidin-1-yl)-5-methyloxazole-4-carboxamide], the EC50 on TRPML1 (setting [1]) is 10 to 1000 nM.

With `CCCc1oc(N2CCCC2)nc1C(=O)Nc1cc(F)c(O[C@@H]2C[C@@H]3C[C@@H]3C2)c(F)c1` [Example 274, N-(4-(cis-bicyclo[3.1.0]hexan-3-yloxy)-3,5-difluorophenyl)-5-propyl-2-(pyrrolidin-1-yl)oxazole-4-carboxamide], on TRPML1 (setting [1]), the EC50 is 10 to 1000 nM.

Regarding `CCC1(OC)CN(c2nc(C(=O)Nc3cc(C)c(N4C5CCCC4CC5)c(F)c3)c(CCF)o2)C1` [Example 291, N-(4-(8-azabicyclo[3.2.1]octan-8-yl)-3-fluoro-5-methylphenyl)-2-(3-ethyl-3-methoxyazetidin-1-yl)-5-(2-fluoroethyl)oxazole-4-carboxamide], on TRPML1, the EC50 is 10 to 1000 nM.

`CCC1(CC)CN(c2nc(C(=O)Nc3cc(C)c(NC4CC5CC(C5)C4)c(F)c3)c(CCF)o2)C1` (stereo not shown) [Example 292, N-(4-(bicyclo[3.1.1]heptan-3-ylamino)-3-fluoro-5-methylphenyl)-2-(3,3-diethylazetidin-1-yl)-5-(2-fluoroethyl)oxazole-4-carboxamide]: the EC50 on TRPML1 (setting [1]) was 1000 to 10000 nM.

For the molecule `CCC1(CC)CN(c2nc(C(=O)Nc3cc(C)c(O[C@@H]4C[C@@H]5C[C@@H]5C4)c(F)c3)c(CN3CCC3)o2)C1` [Example 297, 5-(azetidin-1-ylmethyl)-N-(4-(cis-bicyclo[3.1.0]hexan-3-yloxy)-3-fluoro-5-methylphenyl)-2-(3,3-diethylazetidin-1-yl)oxazole-4-carboxamide], the EC50 on TRPML1 (setting [1]) was 1000 to 10000 nM.

For `CCC1(CC)CN(c2nc(C(=O)Nc3cc(C)c(O[C@@H]4C[C@@H]5C[C@@H]5C4)c(F)c3)c(CN3CCCC3)o2)C1` [Example 298, N-(4-(cis-bicyclo[3.1.0]hexan-3-yloxy)-3-fluoro-5-methylphenyl)-2-(3,3-diethylazetidin-1-yl)-5-(pyrrolidin-1-ylmethyl)oxazole-4-carboxamide], the EC50 at TRPML1 (setting [1]) was 1000 to 10000 nM.

Turning to `CCC1(CC)CN(c2nc(C(=O)Nc3cc(F)c(O[C@@H]4C[C@@H]5C[C@@H]5C4)c(F)c3)c(CN3CCC3)o2)C1` [Example 300, 5-(azetidin-1-ylmethyl)-N-(4-(cis-bicyclo[3.1.0]hexan-3-yloxy)-3,5-difluorophenyl)-2-(3,3-diethylazetidin-1-yl)oxazole-4-carboxamide], the EC50 on TRPML1 (setting [1]) is 1000 to 10000 nM.

For the molecule `CCC1(CC)CN(c2nc(C(=O)Nc3cc(F)c(O[C@@H]4C[C@@H]5C[C@@H]5C4)c(F)c3)c(CN(C)C)o2)C1` [Example 301, N-(4-(cis-bicyclo[3.1.0]hexan-3-yloxy)-3,5-difluorophenyl)-2-(3,3-diethylazetidin-1-yl)-5-((dimethylamino)methyl)oxazole-4-carboxamide], the EC50 at TRPML1 (setting [1]) was 1000 to 10000 nM.

With `Cc1cc(NC(=O)c2nc(N3CCCC3)oc2CN2CCC2)cc(F)c1O[C@@H]1C[C@@H]2C[C@@H]2C1` [Example 305, 5-(azetidin-1-ylmethyl)-N-(4-(cis-bicyclo[3.1.0]hexan-3-yloxy)-3-fluoro-5-methylphenyl)-2-(pyrrolidin-1-yl)oxazole-4-carboxamide], at TRPML1 (setting [1]), the EC50 is 1000 to 10000 nM.

For `O=C(Nc1cc(F)c(O[C@@H]2C[C@@H]3C[C@@H]3C2)c(F)c1)c1nc(N2CCCC2)oc1CN1CCC1` [Example 306, 5-(azetidin-1-ylmethyl)-N-(4-(cis-bicyclo[3.1.0]hexan-3-yloxy)-3,5-difluorophenyl)-2-(pyrrolidin-1-yl)oxazole-4-carboxamide], the EC50 on TRPML1 (setting [1]) is 1000 to 10000 nM.

On to `CCC1(CC)CN(c2nc(C(=O)Nc3cc(C)c4c(c3)CCN4C3CC4CC4C3)c(CC(F)(F)F)o2)C1` (stereo not shown) [Example 310, N-(1-(bicyclo[3.1.0]hexan-3-yl)-7-methylindolin-5-yl)-2-(3,3-diethylazetidin-1-yl)-5-(2,2,2-trifluoroethyl)oxazole-4-carboxamide], for which the EC50 on TRPML1 (setting [1]) is 1000 to 10000 nM.

With `CCC1(CC)CN(c2nc(C(=O)Nc3cc(F)c4c(c3)CCN4C3CC4CC4C3)c(CC(F)(F)F)o2)C1` (stereo not shown) [Example 311, N-(1-(bicyclo[3.1.0]hexan-3-yl)-7-fluoroindolin-5-yl)-2-(3,3-diethylazetidin-1-yl)-5-(2,2,2-trifluoroethyl)oxazole-4-carboxamide], the EC50 at TRPML1 (setting [1]) is 1000 to 10000 nM.

As to `COC1(C)CN(c2nc(C(=O)Nc3cc(F)c4c(c3)CCN4C3CC4CC4C3)c(CC(F)(F)F)o2)C1` (stereo not shown) [Example 312, N-(1-(bicyclo[3.1.0]hexan-3-yl)-7-fluoroindolin-5-yl)-2-(3-methoxy-3-methylazetidin-1-yl)-5-(2,2,2-trifluoroethyl)oxazole-4-carboxamide], on TRPML1 (setting [1]), the EC50 is 1000 to 10000 nM.

In the case of `CCC1(OC)CN(c2nc(C(=O)Nc3cc(F)c4c(c3)CCN4C3CC4CC4C3)c(CC(F)(F)F)o2)C1` (stereo not shown) [Example 313, N-(1-(bicyclo[3.1.0]hexan-3-yl)-7-fluoroindolin-5-yl)-2-(3-ethyl-3-methoxyazetidin-1-yl)-5-(2,2,2-trifluoroethyl)oxazole-4-carboxamide], the EC50 at TRPML1 (setting [1]) was 1000 to 10000 nM.

For `O=C(Nc1cc(F)c2c(c1)CCN2C1CC2CC2C1)c1nc(N2CCC3(COC3)C2)oc1CC(F)(F)F` (stereo not shown) [Example 314, N-(1-(bicyclo[3.1.0]hexan-3-yl)-7-fluoroindolin-5-yl)-2-(2-oxa-6-azaspiro[3.4]octan-6-yl)-5-(2,2,2-trifluoroethyl)oxazole-4-carboxamide], the EC50 on TRPML1 (setting [1]) was 1000 to 10000 nM.
